From ChEMBL document CHEMBL5052828, “Therapeutic agents for treating and preventing autoimmune diseases and cancer and a screening method” (2020) come the findings set out here.

Calls of active or inactive are those of the source. The calls are words filed in the database; no cut-off is given here.

Test [1] concerns Mus musculus. The experiment in a line: Antiinflammatory activity in C57BL/6 mouse model of collagen-induced arthritis assessed as reduction in clinical score at 0.25 mg, ip. Type of test: functional, organism-based.
Test [2] deals with MDA-MB-231. In words: Antiproliferative activity against human MDA-MB-231 cells at 20 uM assessed as suppression of cell viability after 4 hrs by CCK-8 assay. Type of test: functional. (Tetrazolium assays rely on reduction of a dye to a coloured formazan, in cell work by metabolically active cells.)
For test [3], the system named is A549. The experiment in a line: Antiproliferative activity against human A549 cells after 4 hrs by CCK-8 assay. Type of test: functional, cell-based. The following applies: A549, 4 h.
For test [4], the system named is Mus musculus. In words: Antiinflammatory activity in C57BL/6 mouse model of collagen-induced arthritis assessed as reduction in serum IL-6 level at 0.25 mg, ip. Type of test: functional, organism-based.
The test system of test [5] is MDA-MB-231. In words: Antiproliferative activity against human MDA-MB-231 cells after 4 hrs by CCK-8 assay. Type of test: functional, cell-based. The following applies: MDA-MB-231, 4 h.
In test [6] the test system is Mus musculus. The experiment in a line: Protection against imiquimod-induced psoriasis model of BALB/c mouse assessed as reduction in IL-17a mRNA expression at 1 mg treated topically. Type of test: functional, organism-based.
Test [7] deals with HEK293T. In words: Inhibition of Arid5a in human HEK293T cells at 40 uM assessed as inhibition of stabilization of IL-6 on 3'UTR measured by luciferase assay. Type of test: cell-based.
Test [8] concerns LNCaP. In words: Antiproliferative activity against human LNCaP cells after 4 hrs by CCK-8 assay. Type of test: functional, cell-based.
In test [9] the test system is A549. In words: Antiproliferative activity against human A549 cells at 20 uM assessed as suppression of cell viability after 4 hrs by CCK-8 assay. Type of test: functional.
For test [10], the system named is LNCaP. In words: Antiproliferative activity against human LNCaP cells at 25 uM assessed as suppression of cell viability after 4 hrs by CCK-8 assay. Type of test: functional.
Test [11] relates to Mus musculus. In words: Antiinflammatory activity in C57BL/6 mouse model of collagen-induced arthritis assessed as reduction in frequency of CD4+ IL-17+ cells at 0.25 mg, ip. Type of test: functional, organism-based.
For test [12], the system named is Mus musculus. The experiment in a line: Protection against imiquimod-induced psoriasis model of BALB/c mouse assessed as reduction in clinical score at 1 mg treated topically. Type of test: functional, organism-based.
For test [13], the system named is Mus musculus. The experiment in a line: Protection against imiquimod-induced psoriasis model of BALB/c mouse assessed as reduction in IL-6 mRNA expression at 1 mg treated topically. Type of test: functional, organism-based.
For test [14], the system named is HEK293T. The experiment in a line: Inhibition of Arid5a in human HEK293T cells at 10 to 60 uM assessed as inhibition of stabilization of STAT3 on 3'UTR measured by luciferase assay. Type of test: cell-based. The following applies: dose 10-60 µM.
The subject of test [15] is HEK293T. The experiment in a line: Inhibition of Arid5a Y137 pocket X mutant in human HEK293T cells at 40 uM assessed as inhibition of stabilization of STAT3 on 3'UTR measured by luciferase assay. Type of test: cell-based.
In test [16] the test system is Mus musculus. The experiment in a line: Immunosuppressive activity in MOG (35 to 55 residues)/pertussis toxin-induced experimental autoimmune encephalomyelitis female C57BL/6 mouse model assessed as reduction in clinical scores at 0.5 mg, ip. Type of test: functional, organism-based.
Test [17] concerns Mus musculus. The experiment in a line: Immunosuppressive activity in MOG (35 to 55 residues)/pertussis toxin-induced experimental autoimmune encephalomyelitis female C57BL/6 mouse model assessed as reduction in frequency of CD4 + OX40 + T cells at 0.5 mg, ip. Type of test: functional, organism-based. The following applies: T-cell.
For test [18], the system named is HEK293T. The experiment in a line: Inhibition of Arid5a V34 pocket X mutant in human HEK293T cells at 40 uM assessed as inhibition of stabilization of IL-6 on 3'UTR measured by luciferase assay. Type of test: cell-based.
For test [19], the system named is HEK293T. In words: Inhibition of Arid5a F56 pocket X mutant in human HEK293T cells at 40 uM assessed as inhibition of stabilization of STAT3 on 3'UTR measured by luciferase assay. Type of test: cell-based.
The test system of test [20] is HEK293T. The experiment in a line: Inhibition of Arid5a Y137 pocket X mutant in human HEK293T cells at 40 uM assessed as inhibition of stabilization of OX40 on 3'UTR measured by luciferase assay. Type of test: cell-based.
Test [21] has as its system HEK293T. The experiment in a line: Inhibition of Arid5a L84 pocket X mutant in human HEK293T cells at 40 uM assessed as inhibition of stabilization of IL-6 on 3'UTR measured by luciferase assay. Type of test: cell-based.
Test [22] relates to HEK293T. The experiment in a line: Inhibition of Arid5a L84 pocket X mutant in human HEK293T cells at 40 uM assessed as inhibition of stabilization of STAT3 on 3'UTR measured by luciferase assay. Type of test: cell-based.
The subject of test [23] is Macrophage. The experiment in a line: Antiinflammatory activity in LPS-stimulated mouse peritoneal macrophages at 40 uM assessed as decrease in frequency of CD4 + OX40 + T cells in polarized Th17 cells measured by flow cytometry analysis. Type of test: functional, cell-based.
The subject of test [24] is HEK293T. In words: Inhibition of Arid5a L84 pocket X mutant in human HEK293T cells at 40 uM assessed as inhibition of stabilization of OX40 on 3'UTR measured by luciferase assay. Type of test: cell-based.
Test [25] concerns Macrophage. In words: Antiinflammatory activity in LPS-stimulated mouse peritoneal macrophages at 40 uM assessed as decrease STAT3 mRNA expression in Th17 cells. Type of test: functional, cell-based.
For test [26], the system named is Mus musculus. In words: Immunosuppressive activity in MOG (35 to 55 residues)/pertussis toxin-induced experimental autoimmune encephalomyelitis female C57BL/6 mouse model assessed as reduction in serum TNF-alpha level at 0.5 mg, ip. Type of test: functional, organism-based.
Test [27] deals with Mus musculus. The experiment in a line: Immunosuppressive activity in MOG (35 to 55 residues)/pertussis toxin-induced experimental autoimmune encephalomyelitis female C57BL/6 mouse model assessed as reduction in IL-17 level in encephalitogenic CD4 + T cells at 0.5 mg, ip. The following applies: T-cell. Type of test: functional, organism-based.
Test [28] deals with HEK293T. The experiment in a line: Inhibition of Arid5a V34 pocket X mutant in human HEK293T cells at 40 uM assessed as inhibition of stabilization of STAT3 on 3'UTR measured by luciferase assay. Type of test: cell-based.
The subject of test [29] is HEK293T. In words: Inhibition of Arid5a Y137 pocket X mutant in human HEK293T cells at 40 uM assessed as inhibition of stabilization of IL-6 on 3'UTR measured by luciferase assay. Type of test: cell-based.
Test [30] has as its system HEK293T. In words: Inhibition of Arid5a F56 pocket X mutant in human HEK293T cells at 40 uM assessed as inhibition of stabilization of IL-6 on 3'UTR measured by luciferase assay. Type of test: cell-based.
For test [31], the system named is HEK293T. In words: Inhibition of Arid5a in human HEK293T cells at 10 to 60 uM assessed as inhibition of stabilization of IL-6 on 3'UTR measured by luciferase assay. Type of test: cell-based. The following applies: dose 10-60 µM.
The species entered for another test is Homo sapiens. The experiment in a line: Inhibition of human Arid5a binding to (ADE) -like stem loop in the OX40 3'UTR measured by RNA-protein binding assay. The following applies: dose 0.5 mg.
For test [32], the system named is Mus musculus. In words: Immunosuppressive activity in MOG (35 to 55 residues)/pertussis toxin-induced experimental autoimmune encephalomyelitis female C57BL/6 mouse model assessed as reduction in OX40 mRNA expression in CD4 + T cells at 0.5 mg, ip. The following applies: T-cell. Type of test: functional, organism-based.
For test [33], the system named is HEK293T. In words: Inhibition of Arid5a in human HEK293T cells at 10 to 60 uM assessed as inhibition of stabilization of OX40 on 3'UTR measured by luciferase assay. The following applies: dose 10-60 µM. Type of test: cell-based.
Test [34] concerns Macrophage. The experiment in a line: Antiinflammatory activity in LPS-stimulated mouse peritoneal macrophages at 40 uM assessed as decrease in IL-6 level measured by ELISA. Type of test: functional, cell-based. A general note: An ELISA detects its analyte on a solid surface through an enzyme-linked reagent.
Test [35] relates to HEK293T. The experiment in a line: Inhibition of Arid5a F56 pocket X mutant in human HEK293T cells at 40 uM assessed as inhibition of stabilization of OX40 on 3'UTR measured by luciferase assay. Type of test: cell-based.
The test system of test [36] is Macrophage. In words: Antiinflammatory activity in LPS-stimulated mouse peritoneal macrophages at 40 uM assessed as decrease in IL-17 level measured by ELISA. Type of test: functional, cell-based.
In test [37] the test system is Macrophage. The experiment in a line: Antiinflammatory activity in LPS-stimulated mouse peritoneal macrophages at 40 uM assessed as effect on TNF-alpha level measured by ELISA. Type of test: functional, cell-based.
Test [38] has as its system Mus musculus. The experiment in a line: Immunosuppressive activity in MOG (35 to 55 residues)/pertussis toxin-induced experimental autoimmune encephalomyelitis female C57BL/6 mouse model assessed as reduction in serum IL-6 level at 0.5 mg, ip. Type of test: functional, organism-based.
The subject of test [39] is HEK293T. In words: Inhibition of Arid5a V34 pocket X mutant in human HEK293T cells at 40 uM assessed as inhibition of stabilization of OX40 on 3'UTR measured by luciferase assay. Type of test: cell-based.

As to `Cc1nnc(SCC(=O)c2ccccc2)o1`, the outcome in the test on Mus musculus [1], in the test on Mus musculus [4], in the test with Mus musculus [6], with Mus musculus [11], in the test with Mus musculus [12] and in the test on Mus musculus [13] was Active. Also, the Activity worked out at 64% in the test with MDA-MB-231 [2], 59% in the test with A549 [9] and 61% with LNCaP [10]. Also, the IC50 (usually the concentration that inhibits the measured activity by half) in the test with A549 [3] was determined as 28.4 µM; with MDA-MB-231 [5], 27.8 µM; in the test on LNCaP [8], 34.6 µM. For the same compound, the inhibition entry in the test with HEK293T [7] is “Active”.

Consider `O=C(CSc1nnc(-c2ccncc2)o1)c1ccccc1`, for which the inhibition entry in the test with HEK293T [14], in the test on HEK293T [7], in the test on HEK293T [31], in the test filed under Homo sapiens and in the test with HEK293T [33] was “Active” in each case. Besides, the inhibition result with HEK293T [15], in the test on HEK293T [18], in the test on HEK293T [19], with HEK293T [20], in the test on HEK293T [21] and in the test on HEK293T [22] was “inactive” throughout. The inhibition entry in the test on HEK293T [24], in the test with HEK293T [28], in the test on HEK293T [29], in the test with HEK293T [30], in the test on HEK293T [35] and with HEK293T [39] was “inactive” each time. The outcome in the test on Mus musculus [1], with Mus musculus [16], in the test on Mus musculus [17], with Macrophage [23], in the test with Mus musculus [4] and in the test with Macrophage [25] was Active. Moreover, the result in the test with Mus musculus [26], with Mus musculus [27], in the test on Mus musculus [6], in the test on Mus musculus [32], with Macrophage [34] and in the test on Macrophage [36] was Active. For the same compound, the outcome in the test on Mus musculus [11], in the test on Mus musculus [38], in the test on Mus musculus [12] and in the test with Mus musculus [13] was Active. The results for the Activity in the test with MDA-MB-231 [2], in the test with A549 [9] and with LNCaP [10] were 64%, 59% and 61%, respectively. Moreover, the IC50 in the test with A549 [3] amounted to 28.4 µM; in the test on MDA-MB-231 [5] it was 27.8 µM; in the test on LNCaP [8], 34.6 µM. Also, the outcome with Macrophage [37] was inactive.

With `Cc1nnc(NCC(=O)c2ccccc2)s1`, the outcome in the test on Mus musculus [1], with Mus musculus [4], in the test with Mus musculus [6], in the test on Mus musculus [11], in the test on Mus musculus [12] and in the test on Mus musculus [13] was Active. Besides, the Activity with MDA-MB-231 [2] was 64%; in the test on A549 [9], 59%; in the test with LNCaP [10] it was 61%. Also, the IC50 came out at 28.4 µM in the test on A549 [3], 27.8 µM with MDA-MB-231 [5] and 34.6 µM with LNCaP [8]. For the same compound, the inhibition entry in the test with HEK293T [7] was “Active”.

For the compound `CC(=O)CSc1nnc(-c2cccnc2)o1`, the outcome with Mus musculus [1], in the test on Mus musculus [4], with Mus musculus [6], in the test on Mus musculus [11], in the test with Mus musculus [12] and in the test with Mus musculus [13] was Active. In addition, the figures for the Activity with MDA-MB-231 [2], in the test with A549 [9] and in the test on LNCaP [10] were 64%, 59% and 61%, respectively. Also, the IC50 in the test on A549 [3] came to 28.4 µM; in the test with MDA-MB-231 [5] it was 27.8 µM; in the test on LNCaP [8], 34.6 µM. Moreover, the inhibition entry with HEK293T [7] was “Active”.
